Legend:
Type in all cases: in vivo
[1] = test system: Echinochloa crus-galli var. formosensis; experiment: Test Example 1: herbicidal effect test by soil application in paddy rice; details: Echinochloa crus-galli, soil, 336 h; 120 g active ingredient per 10 ares; applied immediately after sowing, flooded pots; 14 days after application; read-out: weed inhibition rate
Summary of the method: (§1)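 Treatment: 120 g active ingredient per 10 ares as a water-diluted emulsifiable concentrate, dropped onto flooded pots immediately after sowing. Thirty seeds per species went 0–1 cm into puddled paddy soil with 16:16:16 fertilizer, with ~3 cm flooding maintained in a glass greenhouse.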

Scirpus juncoides = experiment: as above; details: Schoenoplectiella juncoides, soil, 336 h; 120 g active ingredient per 10 ares; applied immediately after sowing, flooded pots; 14 days after application; read-out: weed inhibition rate
Summary of the method: as §1

Monochoria vaginalis = experiment: as above; details: Pontederia vaginalis, soil, 336 h; 120 g active ingredient per 10 ares; applied immediately after sowing, flooded pots; 14 days after application; read-out: weed inhibition rate
Summary of the method: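 Inhibition rate (%) read 14 days after treatment, duplicate pots. Water-diluted emulsifiable concentrate was applied by dropper at 120 g active ingredient/10 ares right after sowing. Seeds (30 per species, 0–1 cm deep) went into puddled paddy soil kept flooded at about 3 cm in a greenhouse.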

Digitaria ciliaris [2] = experiment: Test Example 3: herbicidal effect test by soil application in upland field; details: Digitaria ciliaris, 120 g per 10 ares, sprayed one day after sowing, 14 days after application, read-out: weed inhibition rate
Summary of the method: (§2)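 Weed inhibition (%) was assessed 14 days after treatment, in duplicate per concentration group. Seeds had been mixed into the upper 1 cm of upland alluvial loam, and the soil surface was sprayed one day later with the diluted emulsifiable concentrate at 120 g active ingredient per 10 ares.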

Echinochloa crus-galli [3] = experiment: as above; details: Echinochloa crus-galli, 120 g per 10 ares, sprayed one day after sowing, 14 days after application, read-out: weed inhibition rate
Summary of the method: as §2

Digitaria ciliaris [4] = experiment: Test Example 4: herbicidal effect test by stem and leaf treatment in upland field; details: Digitaria ciliaris; 120 g per 10 ares; sprayed seven days after sowing, upland soil; 14 days after application; read-out: weed inhibition rate
Echinochloa crus-galli [5] = experiment: as above; details: Echinochloa crus-galli; 120 g per 10 ares; sprayed seven days after sowing, upland soil; 14 days after application; read-out: weed inhibition rate
[6] = test system: Echinochloa crus-galli var. formosensis; experiment: Test Example 6: herbicidal effect test by application during growth period of paddy rice (low dose); details: Echinochloa crus-galli; 7.5 g per 10 ares; applied seven days after sowing, flooded pots; 14 days after application; read-out: weed inhibition rate
Summary of the method: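 Formulated compound, diluted in water, was dropped onto flooded pots seven days post-sowing at 7.5 g a.i. per 10 ares. Seeds had been sown 0-1 cm deep in puddled paddy soil under ~3 cm water in a glass greenhouse. Inhibition (%) assessed at 14 days; duplicate pots.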

Echinochloa crus-galli [7] = experiment: Test Example 7: herbicidal effect test by soil application in upland field (low dose); details: Echinochloa crus-galli, 7.5 g per 10 ares, sprayed one day after sowing, 14 days after application, read-out: weed inhibition rate
Summary of the method: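 Read-out: weed inhibition rate (%) at 14 d post-treatment, duplicate pots per concentration. Seeds sown in the top 1 cm of upland alluvial loam; emulsifiable concentrate diluted in water and sprayed on the soil surface 1 d after sowing at 7.5 g a.i./10 a (100 L/10 a spray volume).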

Digitaria ciliaris [8] = experiment: Test Example 8: herbicidal effect test by stem and leaf treatment in upland field (low dose); details: Digitaria ciliaris; 7.5 g per 10 ares; sprayed seven days after sowing, upland soil; 14 days after application; read-out: weed inhibition rate
Echinochloa crus-galli [9] = experiment: as above; details: Echinochloa crus-galli; 7.5 g per 10 ares; sprayed seven days after sowing, upland soil; 14 days after application; read-out: weed inhibition rate

Cc1ccccc1CO[C@@H]1C[C@]2(C(C)C)O[C@@]1(C)C[C@@H]2Br [1-16, (1S,2R,4R,5S)-5-bromo-1-methyl-2-[(2-methylphenyl)methoxy]-4-isopropyl-7-oxabicyclo[2.2.1]heptane]
≥ 80%: pest or weed control at 1200 g/ha [1] | pest or weed control at 1200 g/ha (Scirpus juncoides) | pest or weed control at 1200 g/ha (Monochoria vaginalis) | inhibition at 1200 g/ha (Digitaria ciliaris [2]) | inhibition at 1200 g/ha (Echinochloa crus-galli [3]) | inhibition at 1200 g/ha (Digitaria ciliaris [4]) | inhibition at 1200 g/ha (Echinochloa crus-galli [5]) | inhibition at 75 g/ha [6] | inhibition at 75 g/ha (Echinochloa crus-galli [7]) | inhibition at 75 g/ha (Digitaria ciliaris [8]) | inhibition at 75 g/ha (Echinochloa crus-galli [9])

CC(C)[C@]12C[C@@H](OCc3ccccc3F)[C@](C)(C[C@@H]1Br)O2 [1-19, (1S,2R,4R,5S)-5-bromo-2-[(2-fluorophenyl)methoxy]-1-methyl-4-isopropyl-7-oxabicyclo[2.2.1]heptane]
≥ 80%: pest or weed control at 1200 g/ha [1] | pest or weed control at 1200 g/ha (Scirpus juncoides) | pest or weed control at 1200 g/ha (Monochoria vaginalis) | inhibition at 1200 g/ha (Digitaria ciliaris [2]) | inhibition at 1200 g/ha (Echinochloa crus-galli [3]) | inhibition at 1200 g/ha (Digitaria ciliaris [4]) | inhibition at 1200 g/ha (Echinochloa crus-galli [5]) | inhibition at 75 g/ha [6] | inhibition at 75 g/ha (Echinochloa crus-galli [7]) | inhibition at 75 g/ha (Digitaria ciliaris [8]) | inhibition at 75 g/ha (Echinochloa crus-galli [9])

CC(C)[C@]12C[C@@H](OCc3ccccc3Cl)[C@](C)(C[C@@H]1Br)O2 [1-20, (1S,2R,4R,5S)-5-bromo-2-[(2-chlorophenyl)methoxy]-1-methyl-4-isopropyl-7-oxabicyclo[2.2.1]heptane]
≥ 80%: pest or weed control at 1200 g/ha [1] | pest or weed control at 1200 g/ha (Scirpus juncoides) | pest or weed control at 1200 g/ha (Monochoria vaginalis) | inhibition at 1200 g/ha (Digitaria ciliaris [2]) | inhibition at 1200 g/ha (Echinochloa crus-galli [3]) | inhibition at 1200 g/ha (Digitaria ciliaris [4]) | inhibition at 1200 g/ha (Echinochloa crus-galli [5]) | inhibition at 75 g/ha [6] | inhibition at 75 g/ha (Echinochloa crus-galli [7]) | inhibition at 75 g/ha (Digitaria ciliaris [8]) | inhibition at 75 g/ha (Echinochloa crus-galli [9])

CC(C)[C@]12C[C@@H](OCc3c(F)cccc3F)[C@](C)(C[C@@H]1Br)O2 [1-21, (1S,2R,4R,5S)-5-bromo-2-[(2,6-difluorophenyl)methoxy]-1-methyl-4-isopropyl-7-oxabicyclo[2.2.1]heptane]
≥ 80%: pest or weed control at 1200 g/ha [1] | pest or weed control at 1200 g/ha (Scirpus juncoides) | pest or weed control at 1200 g/ha (Monochoria vaginalis) | inhibition at 1200 g/ha (Digitaria ciliaris [2]) | inhibition at 1200 g/ha (Echinochloa crus-galli [3]) | inhibition at 1200 g/ha (Digitaria ciliaris [4]) | inhibition at 1200 g/ha (Echinochloa crus-galli [5]) | inhibition at 75 g/ha [6] | inhibition at 75 g/ha (Echinochloa crus-galli [7]) | inhibition at 75 g/ha (Digitaria ciliaris [8]) | inhibition at 75 g/ha (Echinochloa crus-galli [9])

Cc1ccccc1CO[C@@H]1C[C@]2(C(C)C)O[C@@]1(C)C[C@@H]2O [1-24, (1R,2S,4S,5R)-1-isopropyl-4-methyl-5-((2-methylbenzyl)oxy)-7-oxabicyclo[2.2.1]heptan-2-ol]
≥ 80%: pest or weed control at 1200 g/ha [1] | pest or weed control at 1200 g/ha (Scirpus juncoides) | pest or weed control at 1200 g/ha (Monochoria vaginalis) | inhibition at 1200 g/ha (Digitaria ciliaris [2]) | inhibition at 1200 g/ha (Echinochloa crus-galli [3]) | inhibition at 1200 g/ha (Digitaria ciliaris [4]) | inhibition at 1200 g/ha (Echinochloa crus-galli [5]) | inhibition at 75 g/ha [6] | inhibition at 75 g/ha (Echinochloa crus-galli [7]) | inhibition at 75 g/ha (Digitaria ciliaris [8]) | inhibition at 75 g/ha (Echinochloa crus-galli [9])

CC(C)[C@]12C[C@@H](OCc3ccccc3F)[C@](C)(C[C@@H]1O)O2 [1-30, (1R,2S,4S,5R)-5-((2-fluorobenzyl)oxy)-1-isopropyl-4-methyl-7-oxabicyclo[2.2.1]heptan-2-ol]
≥ 80%: pest or weed control at 1200 g/ha [1] | pest or weed control at 1200 g/ha (Scirpus juncoides) | pest or weed control at 1200 g/ha (Monochoria vaginalis) | inhibition at 1200 g/ha (Digitaria ciliaris [2]) | inhibition at 1200 g/ha (Echinochloa crus-galli [3]) | inhibition at 1200 g/ha (Digitaria ciliaris [4]) | inhibition at 1200 g/ha (Echinochloa crus-galli [5]) | inhibition at 75 g/ha [6] | inhibition at 75 g/ha (Echinochloa crus-galli [7]) | inhibition at 75 g/ha (Digitaria ciliaris [8]) | inhibition at 75 g/ha (Echinochloa crus-galli [9])

CC(C)[C@]12C[C@@H](OCc3c(F)cccc3F)[C@](C)(C[C@@H]1O)O2 [1-41, (1R,2S,4S,5R)-5-((2,6-difluorobenzyl)oxy)-1-isopropyl-4-methyl-7-oxabicyclo[2,2,1]heptan-2-ol]
≥ 80%: pest or weed control at 1200 g/ha [1] | pest or weed control at 1200 g/ha (Scirpus juncoides) | pest or weed control at 1200 g/ha (Monochoria vaginalis) | inhibition at 1200 g/ha (Digitaria ciliaris [2]) | inhibition at 1200 g/ha (Echinochloa crus-galli [3]) | inhibition at 1200 g/ha (Digitaria ciliaris [4]) | inhibition at 1200 g/ha (Echinochloa crus-galli [5]) | inhibition at 75 g/ha [6] | inhibition at 75 g/ha (Echinochloa crus-galli [7]) | inhibition at 75 g/ha (Digitaria ciliaris [8]) | inhibition at 75 g/ha (Echinochloa crus-galli [9])

Cc1ccccc1CO[C@@H]1C[C@]2(C(C)C)O[C@@]1(C)CC2C (stereo partly drawn) [1-83, (1S,2R,4R)-4-isopropyl-1,5-dimethyl-2-((2-methylbenzyl)oxy)-7-oxabicyclo[2.2.1]heptane]
≥ 80%: pest or weed control at 1200 g/ha [1] | pest or weed control at 1200 g/ha (Scirpus juncoides) | pest or weed control at 1200 g/ha (Monochoria vaginalis) | inhibition at 1200 g/ha (Digitaria ciliaris [2]) | inhibition at 1200 g/ha (Echinochloa crus-galli [3]) | inhibition at 1200 g/ha (Digitaria ciliaris [4]) | inhibition at 1200 g/ha (Echinochloa crus-galli [5]) | inhibition at 75 g/ha [6] | inhibition at 75 g/ha (Echinochloa crus-galli [7]) | inhibition at 75 g/ha (Digitaria ciliaris [8]) | inhibition at 75 g/ha (Echinochloa crus-galli [9])

CC(C)[C@]12C[C@@H](OCc3ccccc3F)[C@](C)(CC1C)O2 (stereo partly drawn) [1-92, (1S,2R,4R)-2-((2-fluorobenzyl)oxy)-4-isopropyl-1,5-dimethyl-7-oxabicyclo[2.2.1]heptane]
≥ 80%: pest or weed control at 1200 g/ha [1] | pest or weed control at 1200 g/ha (Scirpus juncoides) | pest or weed control at 1200 g/ha (Monochoria vaginalis) | inhibition at 1200 g/ha (Digitaria ciliaris [2]) | inhibition at 1200 g/ha (Echinochloa crus-galli [3]) | inhibition at 1200 g/ha (Digitaria ciliaris [4]) | inhibition at 1200 g/ha (Echinochloa crus-galli [5]) | inhibition at 75 g/ha [6] | inhibition at 75 g/ha (Echinochloa crus-galli [7]) | inhibition at 75 g/ha (Digitaria ciliaris [8]) | inhibition at 75 g/ha (Echinochloa crus-galli [9])

CC(C)[C@]12C[C@@H](OCc3ccccc3F)[C@](C)(C[C@H]1C)O2 [1-94, (1S,2R,4R,5R)-2-[(2-fluorophenyl)methoxy]-1,5-dimethyl-4-isopropyl-7-oxabicyclo[2.2.1]heptane]
≥ 80%: pest or weed control at 1200 g/ha [1] | pest or weed control at 1200 g/ha (Scirpus juncoides) | pest or weed control at 1200 g/ha (Monochoria vaginalis) | inhibition at 1200 g/ha (Digitaria ciliaris [2]) | inhibition at 1200 g/ha (Echinochloa crus-galli [3]) | inhibition at 1200 g/ha (Digitaria ciliaris [4]) | inhibition at 1200 g/ha (Echinochloa crus-galli [5]) | inhibition at 75 g/ha [6] | inhibition at 75 g/ha (Echinochloa crus-galli [7]) | inhibition at 75 g/ha (Digitaria ciliaris [8]) | inhibition at 75 g/ha (Echinochloa crus-galli [9])
